In article PMC10480232 (Scientific Reports, 2023):
Residues, ends and D or L forms follow the SMILES beside them. No end group written: not given here.

Columns and labels:
SARS-CoV-2 = conditions: 1 h
[1] = tested on: SARS-CoV-2 (nCoV/USA_WA1/2020)

Compound | SARS-CoV-2 inhibition at 50 µM (SARS-CoV-2) [%] | other results
CC[C@H](C)[C@H](NC(=O)[C@H](CCCNC(=N)N)NC(=O)[C@H](CCC(=O)O)NC(=O)CN)C(=O)N[C@@H](CCCCN)C(=O)N[C@@H](CC(N)=O)C(=O)N[C@@H](C)C(=O)N[C@@H](CCCCN)C(=O)N[C@@H](CCCCN)C(=O)N[C@@H](CCCCN)C(=O)N[C@H](C(=O)N[C@@H](Cc1c[nH]c2ccccc12)C(=O)N[C@@H](CCC(=O)O)C(=O)N[C@@H](CCCCN)C(=O)N[C@H](C(=O)N[C@@H](CCCCN)C(=O)N[C@@H](CO)C(=O)N[C@@H](Cc1ccccc1)C(=O)NCC(=O)N[C@@H](CCCNC(=N)N)C(=O)N[C@@H](CCCNC(=N)N)C(=O)N[C@H](C(=O)N[C@@H](CCCCN)C(=O)N[C@@H](CC(=O)O)C(=O)N[C@@H](Cc1ccccc1)C(=O)N[C@@H](Cc1ccccc1)C(=O)N[C@@H](CCCNC(=N)N)C(=O)N[C@@H](CCCCN)C(=O)N1CCC[C@H]1C(=O)N[C@@H](CO)C(=O)N1CCC[C@H]1C(=O)N[C@@H](CCC(=O)O)C(=O)N[C@H](C(=O)N[C@@H](CCC(=O)O)C(=O)N1CCC[C@H]1C(=O)O)C(C)C)[C@@H](C)CC)[C@@H](C)CC)C(C)C [Bat Cathelicidin 4c] (H-GERIKNAKKKVWEKIKSFGRRIKDFFRKPSPEVEP-OH; N-terminus and C-terminus assumed) | > 50 | 
CC[C@H](C)[C@H](NC(=O)[C@H](CCCNC(=N)N)NC(=O)[C@@H]1CCCN1C(=O)[C@@H](NC(=O)[C@@H]1CCCN1C(=O)[C@H](Cc1ccccc1)NC(=O)[C@H](CO)NC(=O)[C@@H]1CCCN1C(=O)[C@@H]1CCCN1C(=O)[C@H](Cc1ccccc1)NC(=O)[C@H](Cc1c[nH]c2ccccc12)NC(=O)[C@@H]1CCCN1C(=O)[C@@H]1CCCN1C(=O)[C@@H]1CCCN1C(=O)[C@H](Cc1c[nH]c2ccccc12)NC(=O)[C@H](CCC(N)=O)NC(=O)[C@H](Cc1c[nH]c2ccccc12)NC(=O)[C@H](CCCNC(=N)N)NC(=O)[C@H](CC(C)C)NC(=O)[C@@H]1CCCN1C(=O)[C@@H](NC(=O)[C@@H]1CCCN1C(=O)[C@H](Cc1c[nH]c2ccccc12)NC(=O)[C@H](Cc1ccccc1)NC(=O)[C@@H]1CCCN1C(=O)[C@@H](NC(=O)[C@H](CCCNC(=N)N)NC(=O)[C@@H](N)CCCNC(=N)N)[C@@H](C)CC)[C@@H](C)CC)[C@@H](C)CC)C(=O)N[C@@H](CO)C(=O)N[C@@H](CCCNC(=N)N)C(=O)N[C@@H](CCCCN)C(=O)N[C@@H](CCCNC(=N)N)C(=O)O [Beluga 1] (H-RRIPFWPIPLRWQWPPPWFPPSFPIPRISRKR-OH; N-terminus and C-terminus assumed) | > 50 | 
CC[C@H](C)[C@H](NC(=O)[C@H](CCCCN)NC(=O)[C@H](CCC(=O)O)NC(=O)[C@H](CCCCN)NC(=O)[C@H](CO)NC(=O)[C@H](CCCCN)NC(=O)[C@H](CCCNC(=N)N)NC(=O)[C@H](Cc1ccccc1)NC(=O)[C@H](Cc1ccccc1)NC(=O)[C@H](CC(=O)O)NC(=O)CNC(=O)[C@H](CC(C)C)NC(=O)[C@@H](N)CC(C)C)C(=O)NCC(=O)N[C@@H](CCCCN)C(=O)N[C@@H](CCC(=O)O)C(=O)N[C@@H](Cc1ccccc1)C(=O)N[C@@H](CCCCN)C(=O)N[C@@H](CCCNC(=N)N)C(=O)N[C@H](C(=O)N[C@H](C(=O)N[C@@H](CCC(N)=O)C(=O)N[C@@H](CCCNC(=N)N)C(=O)N[C@H](C(=O)N[C@@H](CCCCN)C(=O)N[C@@H](CC(=O)O)C(=O)N[C@@H](Cc1ccccc1)C(=O)N[C@@H](CC(C)C)C(=O)N[C@@H](CCCNC(=N)N)C(=O)N[C@@H](CC(N)=O)C(=O)N[C@@H](CC(C)C)C(=O)N[C@H](C(=O)N1CCC[C@H]1C(=O)N[C@@H](CCCNC(=N)N)C(=O)N[C@H](C(=O)N[C@@H](CCC(=O)O)C(=O)N[C@@H](CO)C(=O)O)[C@@H](C)O)C(C)C)[C@@H](C)CC)C(C)C)[C@@H](C)CC [LL-37, reference compound] | > 50 | hemolytic activity (in words) (human red blood cells): considerable hemolytic activity; HEK293T TD50 (HEK293T cells): 26.61 µM; Vero TD50 48 h (Vero hACE2 cells): 39.44 µM
CC[C@H](C)[C@H](NC(=O)CNC(=O)[C@@H](NC(=O)[C@H](CCCCN)NC(=O)[C@@H](NC(=O)[C@H](CCCCN)NC(=O)[C@H](CCCCN)NC(=O)[C@H](Cc1ccccc1)NC(=O)[C@H](Cc1ccccc1)NC(=O)[C@H](CC(N)=O)NC(=O)[C@H](CCCCN)NC(=O)[C@H](Cc1ccccc1)NC(=O)[C@H](CCCNC(=N)N)NC(=O)[C@@H](N)CCCCN)[C@@H](C)CC)[C@@H](C)O)C(=O)N[C@@H](CCCCN)C(=O)N[C@@H](CCCCN)C(=O)N[C@H](C(=O)N[C@H](C(=O)N[C@@H](CCCCN)C(=O)N[C@@H](CCCCN)C(=O)N[C@H](C(=O)N[C@@H](CCCCN)C(=O)N[C@@H](CCC(=O)O)C(=O)O)[C@@H](C)O)[C@@H](C)CC)C(C)C [NS] (H-KRFKNFFKKIKTGIKKVIKKTKE-OH; N-terminus and C-terminus assumed) | > 50 | 
CC[C@H](C)[C@H](NC(=O)[C@H](CO)NC(=O)[C@H](CCCCN)NC(=O)[C@H](CCCNC(=N)N)NC(=O)[C@H](CC(C)C)NC(=O)[C@H](CCCCN)NC(=O)[C@H](CCCCN)NC(=O)[C@@H](NC(=O)[C@H](CCCNC(=N)N)NC(=O)[C@H](CCCCN)NC(=O)[C@@H](N)CCCNC(=N)N)[C@@H](C)CC)C(=O)N[C@@H](CCCCN)C(=O)N[C@@H](CCCCN)C(=O)N[C@@H](CCCNC(=N)N)C(=O)N[C@@H](CC(C)C)C(=O)N[C@@H](CCCCN)C(=O)N[C@@H](CCCCN)C(=O)N[C@@H](CC(C)C)C(=O)N1CCC[C@H]1C(=O)N[C@@H](Cc1ccccc1)C(=O)N[C@@H](CCC(=O)O)C(=O)N[C@H](C(=O)N1CCC[C@H]1C(=O)N[C@@H](CC(C)C)C(=O)N[C@H](C(=O)N[C@@H](Cc1ccccc1)C(=O)N[C@@H](CO)C(=O)N[C@H](C(=O)N1CCC[C@H]1C(=O)N[C@@H](Cc1ccccc1)C(=O)O)[C@@H](C)CC)C(C)C)C(C)C [PC1a] (H-RKRIKKLRKSIKKRLKKLPFEVPLVFSIPF-OH; N-terminus and C-terminus assumed) | > 50 | 
CC[C@H](C)[C@H](NC(=O)[C@H](CCCCN)NC(=O)[C@H](CCCCN)NC(=O)[C@H](Cc1ccccc1)NC(=O)[C@H](Cc1ccccc1)NC(=O)[C@H](CCCCN)NC(=O)[C@H](CCCCN)NC(=O)[C@H](Cc1ccccc1)NC(=O)[C@H](CCCNC(=N)N)NC(=O)[C@@H](N)CCCCN)C(=O)N[C@@H](CCCCN)C(=O)N[C@@H](CCCCN)C(=O)N[C@@H](CO)C(=O)N[C@H](C(=O)N[C@@H](CCCCN)C(=O)N[C@@H](CCCCN)C(=O)N[C@@H](CCCNC(=N)N)C(=O)N[C@H](C(=O)N[C@@H](CCCCN)C(=O)N[C@@H](CCCCN)C(=O)N[C@@H](CC(C)C)C(=O)N[C@@H](Cc1ccccc1)C(=O)N[C@@H](CCCCN)C(=O)N[C@@H](CCCCN)C(=O)N1CCC[C@H]1C(=O)N[C@@H](CCCNC(=N)N)C(=O)N[C@H](C(=O)N[C@H](C(=O)N1CCC[C@H]1C(=O)N[C@H](C(=O)N[C@@H](CO)C(=O)N[C@H](C(=O)N1CCC[C@H]1C(=O)N[C@@H](Cc1ccccc1)C(=O)O)[C@@H](C)CC)[C@@H](C)CC)[C@@H](C)CC)C(C)C)C(C)C)C(C)C [TS] (H-KRFKKFFKKIKKSVKKRVKKLFKKPRVIPISIPF-OH; N-terminus and C-terminus assumed) | > 50 | 
CC[C@H](C)[C@H](NC(=O)[C@H](CO)NC(=O)CNC(=O)[C@@H](NC(=O)[C@@H](NC(=O)[C@@H]1CCCN1C(=O)[C@@H]1CCCN1C(=O)[C@@H](NC(=O)[C@H](Cc1c[nH]c2ccccc12)NC(=O)[C@H](CCCCN)NC(=O)[C@H](CC(C)C)NC(=O)[C@@H](NC(=O)[C@H](CCCCN)NC(=O)CNC(=O)[C@@H](NC(=O)[C@H](CCCCN)NC(=O)[C@H](CCCCN)NC(=O)[C@H](CC(C)C)NC(=O)[C@H](CCCNC(=N)N)NC(=O)[C@H](CCCCN)NC(=O)[C@H](CCCNC(=N)N)NC(=O)[C@@H](NC(=O)[C@H](CCCCN)NC(=O)[C@H](CCCCN)NC(=O)[C@H](CCCNC(=N)N)NC(=O)[C@H](CC(C)C)NC(=O)[C@H](CCCNC(=N)N)NC(=O)[C@H](CCCNC(=N)N)NC(=O)[C@H](Cc1ccccc1)NC(=O)[C@H](CCCNC(=N)N)NC(=O)CNC(=O)[C@@H](N)C(C)C)[C@@H](C)O)[C@@H](C)CC)C(C)C)[C@@H](C)CC)[C@@H](C)CC)C(C)C)C(=O)O [p5C] (H-VGRFRRLRKKTRKRLKKIGKVLKWIPPIVGSI-OH) |  | anti-SARS-CoV-2 activity relative to PMAP-36R (in words) [1]: little inhibitory activity
CC[C@H](C)[C@H](NC(=O)[C@@H]1CCCN1C(=O)[C@@H]1CCCN1C(=O)[C@@H](NC(=O)[C@H](Cc1c[nH]c2ccccc12)NC(=O)[C@H](CCCCN)NC(=O)[C@H](CC(C)C)NC(=O)[C@@H](NC(=O)[C@H](CCCCN)NC(=O)CNC(=O)[C@@H](NC(=O)[C@H](CCCCN)NC(=O)[C@H](CCCCN)NC(=O)[C@H](CC(C)C)NC(=O)[C@H](CCCNC(=N)N)NC(=O)[C@H](CCCCN)NC(=O)[C@H](CCCNC(=N)N)NC(=O)[C@@H](NC(=O)[C@H](CCCCN)NC(=O)[C@H](CCCCN)NC(=O)[C@H](CCCNC(=N)N)NC(=O)[C@H](CC(C)C)NC(=O)[C@H](CCCNC(=N)N)NC(=O)[C@H](CCCNC(=N)N)NC(=O)[C@H](Cc1ccccc1)NC(=O)[C@H](CCCNC(=N)N)NC(=O)CNC(=O)[C@@H](N)C(C)C)[C@@H](C)O)[C@@H](C)CC)C(C)C)[C@@H](C)CC)C(=O)O [p9C] (H-VGRFRRLRKKTRKRLKKIGKVLKWIPPI-OH) |  | anti-SARS-CoV-2 activity relative to PMAP-36R (in words) [1]: none
CC[C@H](C)[C@H](NC(=O)[C@H](CCCCN)NC(=O)[C@H](CCCCN)NC(=O)[C@@H](N)CC(C)C)C(=O)NCC(=O)N[C@@H](CCCCN)C(=O)N[C@H](C(=O)N[C@@H](CC(C)C)C(=O)N[C@@H](CCCCN)C(=O)N[C@@H](Cc1c[nH]c2ccccc12)C(=O)N[C@H](C(=O)N1CCC[C@H]1C(=O)N1CCC[C@H]1C(=O)N[C@H](C(=O)N[C@H](C(=O)NCC(=O)N[C@@H](CO)C(=O)N[C@H](C(=O)N1CCC[C@H]1C(=O)N[C@@H](CC(C)C)C(=O)NCC(=O)N[C@@H](CS)C(=O)NCC(=O)O)[C@@H](C)CC)C(C)C)[C@@H](C)CC)[C@@H](C)CC)C(C)C [p14N] (H-LKKIGKVLKWIPPIVGSIPLGCG-OH) |  | anti-SARS-CoV-2 activity relative to PMAP-36R (in words) [1]: no inhibition
IKNVELNIENLGERIKNAKKKVWEKIKSFGRRIKDFFRKPSPEVEP [Bat Cathelicidin 4] | > 50 | 
RTKRFRKLGNLLQKGGQKIGQKIERIGQKIKDFFSNLVPRQEGA [Pangolin 1] | > 50 | 
